Consider 16 compounds from patent publication US7491819B1 (priority 2004, dated 2009).

In one experiment the target is T1, HIV-integrase (Human immunodeficiency virus type 1 group M subtype B, UniProt P12497).
T1 construct: Recombinant integrase (0.26 ng) was incubated with the beads
The experiment can be described thus: HIV-Integrase Inhibition Activity (SPA bead strand-transfer assay). It is filed as biochemical. In short, it runs like this: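 Biotin-labelled substrate DNA (5 pmole) bound to streptavidin SPA beads, preloaded with recombinant integrase (0.26 ng) for 90 min at 37° C, then washed. Inhibitors and 0.1 fmol P33-labelled target DNA added; reaction stopped with 10 mM EDTA. Integration read as scintillation CPM.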

The subject of a further experiment is HIV-1 303B. The experiment can be described thus: microbe, parasite or virus in culture. It is filed as cell-based. As to conditions: for EC50: Human immunodeficiency virus 1, MT2, 120 h; for overall antiviral effect of the two-drug combination with Example 19 (in words): classification from combination indices and confidence intervals; for Combination Indices at 50% HIV Inhibition (Confidence Interval) / Combination Indices at 75% HIV Inhibition (Confidence Interval) / Combination Indices at 90% HIV Inhibition (Confidence Interval): in combination with Example 19, 95% CI in parenthesis.

In another experiment the test system is NL-Rluc virus. The experiment can be described thus: Inhibition of HIV replication (recombinant NL-Rluc virus, luciferase). It is filed as cell-based.
Where [1] appears, read: Human immunodeficiency virus 1, Table 2, serum condition not stated (10% FBS, 15 mg/ml human serum albumin/10% FBS or 40% human serum/5% FBS), at least 2 experiments, read-out: Activity (inhibition of HIV replication, EC50 class).
Where [2] appears, read: Human immunodeficiency virus 1, read-out: Inhibition of HIV replication.
The mark [3] stands for this setting: Table 2a, read-out: HIV-Integrase Inhibition Activity.
Where [4] appears, read: EC50 ratio Example 19:comparator 1:1.
Setting [5] is: EC50 ratio Example 19:comparator 1:2.5.
[6] abbreviates: EC50 ratio Example 19:comparator 2.5:1.

Where two headings read alike, the source gives them in different places. Where only a bound is given, the exact number is not on record here.

Take `CC1(C)OCCn2c1nc(C(=O)NCc1ccc(F)cc1)c(O)c2=O` [Example 19, Pyrimido[2,1-c][1,4]oxazine-2-carboxamide, N-[(4-fluorophenyl)methyl]-4,6,7,9-tetrahydro-3-hydroxy-9,9-dimethyl-4-oxo-]: the IC50 at HIV-integrase (Table 1, read-out: Activity (HIV-integrase inhibition, IC50 class)) lay in the range of 2 to 100 nM. Further, in the experiment with HIV-1 303B, the EC50 was 22 nM and the “overall antiviral effect of the two-drug combination with Example 19 (in words)” value is listed as “synergistic or additive-synergistic”.

Take `CN(C)C(=O)Oc1cc(F)ccc1CNC(=O)c1nc2n(c(=O)c1O)CCOC2(C)C` [Example 96, Carbamic acid, dimethyl-, 5-fluoro-2-[[[(4,6,7,9-tetrahydro-3-hydroxy-9,9-dimethyl-4-oxopyrimido[2,1-c][1,4]oxazin-2-yl)carbonyl]amino]methyl]phenyl ester]: the IC50 against HIV-integrase was 2 to 100 nM. Moreover, in the experiment on NL-Rluc virus (setting [1]), the EC50 was 3 to 100 nM.

On to `CC1(C)OCCn2c1nc(C(=O)NCc1ccc(F)cc1OC(=O)N1CCOCC1)c(O)c2=O` [Example 99, 4-Morpholinecarboxylic acid, 5-fluoro-2-[[[(4,6,7,9-tetrahydro-3-hydroxy-9,9-dimethyl-4-oxopyrimido[2,1-c][1,4]oxazin-2-yl)carbonyl]amino]methyl]phenyl ester], for which, on HIV-integrase, the IC50 was in the range of 2 to 100 nM. Moreover, in the experiment with NL-Rluc virus (setting [1]), the EC50 fell in the range of 3 to 100 nM.

Consider `CC1(C)OCCn2c1nc(C(=O)NCc1cccc(C3(C(F)(F)F)NN3)c1)c(O)c2=O` [Example 104, Pyrimido[2,1-c][1,4]oxazine-2-carboxamide, 4,6,7,9-tetrahydro-3-hydroxy-9,9-dimethyl-4-oxo-N-[[3-[3-(trifluoromethyl)-3-diaziridinyl]-phenyl]-methyl]-], for which the IC50 at HIV-integrase was 100 to 1000 nM. Further, the EC50 with NL-Rluc virus (setting [1]) lay within 100 to 1000 nM.

In the case of `CCC1OCCn2c1nc(C(=O)NCc1ccc(F)cc1-n1ncnc1C)c(O)c2=O` (centres unmarked) [Example 285, Pyrimido[2,1-c][1,4]oxazine-2-carboxamide, 9-ethyl-N-[[4-fluoro-2-(5-methyl-1H-1,2,4-triazol-1-yl)phenyl]methyl]-4,6,7,9-tetrahydro-3-hydroxy-4-oxo-], the EC50 in the experiment with NL-Rluc virus (setting [2]) lay in the range of 3 to 100 nM.

For the compound `CC1(C)OCCn2c1nc(C(=O)NCc1ccc(F)cc1P(=O)(O)O)c(O)c2=O` [Example 289, Phosphonic acid, [5-fluoro-2-[[[(4,6,7,9-tetrahydro-3-hydroxy-9,9-dimethyl-4-oxopyrimido[2,1-c][1,4]oxazin-2-yl)carbonyl]amino]methyl]phenyl]-], the IC50 on HIV-integrase (setting [3]) lay within 2 to 100 nM. In addition, the EC50 in the experiment on NL-Rluc virus (setting [2]) was greater than 1000 nM.

`COP(=O)(O)c1cc(F)ccc1CNC(=O)c1nc2n(c(=O)c1O)CCOC2(C)C` [Example 290, Phosphonic acid, [5-fluoro-2-[[[(4,6,7,9-tetrahydro-3-hydroxy-9,9-dimethyl-4-oxopyrimido[2,1-c][1,4]oxazin-2-yl)carbonyl]amino]methyl]phenyl]-, monomethyl ester]: at HIV-integrase (setting [3]), the IC50 fell in the range of 2 to 100 nM. The EC50 with NL-Rluc virus (setting [2]) lay in the range of 100 to 1000 nM.

Turning to `CC1(C)OCCn2c1nc(C(=O)NCc1ccc(F)cc1P1(=O)OCCO1)c(O)c2=O` [Example 291, Pyrimido[2,1-c][1,4]oxazine-2-carboxamide, N-[[4-fluoro-2-(2-oxido-1,3,2-dioxaphospholan-2-yl)phenyl]methyl]-4,6,7,9-tetrahydro-3-hydroxy-9,9-dimethyl-4-oxo-], the IC50 on HIV-integrase (setting [3]) fell in the range of 2 to 100 nM. Moreover, the EC50 in the experiment with NL-Rluc virus (setting [2]) was greater than 1000 nM.

Regarding `CC1(C)OCCn2c1nc(C(=O)NCc1ccc(F)cc1P(=O)(O)OCCO)c(O)c2=O` [Example 292, Phosphonic acid, [5-fluoro-2-[[[(4,6,7,9-tetrahydro-3-hydroxy-9,9-dimethyl-4-oxopyrimido[2,1-c][1,4]oxazin-2-yl)carbonyl]amino]methyl]phenyl]-, mono(2-hydroxyethyl) ester], the IC50 on HIV-integrase (setting [3]) lay in the range of 2 to 100 nM. Further, the EC50 in the experiment with NL-Rluc virus (setting [2]) is greater than 1000 nM.

On to `CC1(C)OCCn2c1nc(C(=O)NCc1ccc(F)cc1P(=O)(OCCO)OCCO)c(O)c2=O` [Example 293, Phosphonic acid, [5-fluoro-2-[[[(4,6,7,9-tetrahydro-3-hydroxy-9,9-dimethyl-4-oxopyrimido[2,1-c][1,4]oxazin-2-yl)carbonyl]amino]methyl]phenyl]-, bis(2-hydroxyethyl) ester], for which the IC50 on HIV-integrase (setting [3]) lay within 2 to 100 nM. The EC50 with NL-Rluc virus (setting [2]) is 100 to 1000 nM.

Take `CC1(C)COP(=O)(c2cc(F)ccc2CNC(=O)c2nc3n(c(=O)c2O)CCOC3(C)C)OC1` [Example 294, Pyrimido[2,1-c][1,4]oxazine-2-carboxamide, N-[[2-(5,5-dimethyl-2-oxido-1,3,2-dioxaphosphorinan-2-yl)-4-fluorophenyl]methyl]-4,6,7,9-tetrahydro-3-hydroxy-9,9-dimethyl-4-oxo-]: the IC50 at HIV-integrase (setting [3]) fell in the range of 2 to 100 nM. Also, in the experiment with NL-Rluc virus (setting [2]), the EC50 was in the range of 3 to 100 nM.

Turning to `CC1(C)OCCn2c1nc(C(=O)NCc1ccc(F)cc1-n1ccnn1)c(O)c2=O` [Example 295, Pyrimido[2,1-c][1,4]oxazine-2-carboxamide, N-[[4-fluoro-2-(1H-1,2,3-triazol-1-yl)phenyl]methyl]-4,6,7,9-tetrahydro-3-hydroxy-9,9-dimethyl-4-oxo-], the IC50 on HIV-integrase (setting [3]) lay within 2 to 100 nM. In addition, the EC50 in the experiment with NL-Rluc virus (setting [2]) lay in the range of 3 to 100 nM.

Consider `Cc1cnnn1-c1cc(F)ccc1CNC(=O)c1nc2n(c(=O)c1O)CCOC2(C)C` [Example 296, Pyrimido[2,1-c][1,4]oxazine-2-carboxamide, N-[[4-fluoro-2-(5-methyl-1H-1,2,3-triazol-1-yl)phenyl]methyl]-4,6,7,9-tetrahydro-3-hydroxy-9,9-dim ethyl-4-oxo-], for which the IC50 at HIV-integrase (setting [3]) lay within 2 to 100 nM. The EC50 in the experiment with NL-Rluc virus (setting [2]) lay in the range of 3 to 100 nM.

As for `CC(C)(C)c1cn(-c2cc(F)ccc2CNC(=O)c2nc3n(c(=O)c2O)CCOC3(C)C)nn1` [Example 297, Pyrimido[2,1-c][1,4]oxazine-2-carboxamide, N-[[2-[4-(1,1-dimethylethyl)-1H-1,2,3-triazol-1-yl]-4-fluorophenyl]methyl]-4,6,7,9-tetrahydro-3-hydroxy-9,9-dimethyl-4-oxo-], the IC50 on HIV-integrase (setting [3]) fell in the range of 2 to 100 nM. The EC50 with NL-Rluc virus (setting [2]) was 3 to 100 nM.

Consider `Cc1nnn(-c2cc(F)ccc2CNC(=O)c2nc3n(c(=O)c2O)CCOC3(C)C)c1C` [Example 298, Pyrimido[2,1-c][1,4]oxazine-2-carboxamide, N-[[2-(4,5-dimethyl-1H-1,2,3-triazol-1-yl)-4-fluorophenyl]methyl]-4,6,7,9-tetrahydro-3-hydroxy-9,9-dimethyl-4-oxo-], for which the IC50 on HIV-integrase (setting [3]) fell in the range of 2 to 100 nM. The EC50 with NL-Rluc virus (setting [2]) fell in the range of 3 to 100 nM.

`Cc1cn([C@H]2C[C@H](N=[N+]=[N-])[C@@H](CO)O2)c(=O)[nH]c1=O` [Zidovudine]: in the experiment on HIV-1 303B, the EC50 is 12 nM and the “overall antiviral effect of the two-drug combination with Example 19 (in words)” value was “synergistic to additive”. In the experiment on HIV-1 303B (setting [4]), the “Combination Indices at 50% HIV Inhibition (Confidence Interval)” value is listed as 0.59 (0.49, 0.69); the “Combination Indices at 75% HIV Inhibition (Confidence Interval)” value is 0.56 (0.41, 0.70); the “Combination Indices at 90% HIV Inhibition (Confidence Interval)” value was 0.54 (0.36, 0.70). Also, in the experiment on HIV-1 303B (setting [5]), the “Combination Indices at 50% HIV Inhibition (Confidence Interval)” value is 0.65 (0.56, 0.75); the “Combination Indices at 75% HIV Inhibition (Confidence Interval)” value was 0.73 (0.59, 0.86); the “Combination Indices at 90% HIV Inhibition (Confidence Interval)” value is given as 0.81 (0.57, 1.06). In addition, in the experiment with HIV-1 303B (setting [6]), the “Combination Indices at 50% HIV Inhibition (Confidence Interval)” value was 0.72 (0.61, 0.83); the “Combination Indices at 75% HIV Inhibition (Confidence Interval)” value was 0.83 (0.64, 1.02); the “Combination Indices at 90% HIV Inhibition (Confidence Interval)” value is 0.96 (0.63, 1.30).
